Where a name gives a salt, the structure may show the parent alone. Read-outs that look alike come from different tables or passages of the source.
Columns and labels:
KMS-11 = assay: Cytostatic activity on human multiple myeloma cell line KMS-11 (WST-1); format: cell-based; settings: for inhibition at 1 µM / inhibition at 10 µM: Homo sapiens, KMS-11, 72 h; for inhibition at 1 µM: read-out: cytostatic rate (%) KMS-11 (1 μmol/L); for inhibition at 10 µM: read-out: cytostatic rate (%) KMS-11 (10 μmol/L)
Method in brief: (§1)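 Cytostatic rate is 100 minus % growth relative to DMSO-only wells (100%) and blank wells (0%), read by WST-1 absorbance at 450/690 nm after 2 h. Compound at 1 or 10 μmol/L final was applied for 72 h at 37 °C to cells seeded 24 h earlier.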

IGF-1R = molecular target: T1, IGF-1R (Homo sapiens, UniProt P08069); assay: IGF-1R inhibitory activity (kinase reaction, time-resolved fluoroimmunoassay); format: biochemical; settings: test compound 10 μmol/L
T1 construct: purchased Upstate Co. 14-465
T1 sequence (P08069 959-1367 limits assumed): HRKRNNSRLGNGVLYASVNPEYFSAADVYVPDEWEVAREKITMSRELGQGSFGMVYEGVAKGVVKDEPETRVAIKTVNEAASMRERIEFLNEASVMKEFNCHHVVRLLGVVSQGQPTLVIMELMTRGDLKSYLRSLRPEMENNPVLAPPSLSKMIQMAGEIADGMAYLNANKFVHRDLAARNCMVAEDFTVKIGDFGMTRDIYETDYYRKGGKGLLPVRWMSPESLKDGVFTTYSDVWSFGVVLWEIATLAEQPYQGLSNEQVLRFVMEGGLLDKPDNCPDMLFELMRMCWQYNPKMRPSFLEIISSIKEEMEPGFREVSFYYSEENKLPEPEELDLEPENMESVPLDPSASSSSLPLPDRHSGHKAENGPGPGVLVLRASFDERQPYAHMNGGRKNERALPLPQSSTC
Method in brief: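 Compounds were tested at a single 10 μmol/L concentration. Each was incubated with recombinant IGF-1R (200 μg/L), 10 mmol/L ATP, MgCl2/MnCl2 and Na3VO4 (pH 7.5) on immobilized poly(Glu-Tyr) peptide for 30 min at 24° C. Eu-anti-phosphotyrosine time-resolved fluorescence (340/615 nm) gave relative activity against no-compound and no-enzyme wells, reported as % inhibition.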

NCI-H929 = assay: Cytostatic activity on human multiple myeloma cell line NCI-H929 (WST-1); format: cell-based; settings: for inhibition at 1 µM / inhibition at 10 µM: Homo sapiens, NCI-H929, 72 h; for inhibition at 1 µM: read-out: cytostatic rate (%) H929 (1 μmol/L); for inhibition at 10 µM: read-out: cytostatic rate (%) H929 (10 μmol/L)
Method in brief: as §1

[1] = IGF-1R active recombinant enzyme
[2] = KMS-11 cells, test compound 1 μmol/L, WST-1
[3] = NCI-H929 cells, test compound 1 μmol/L, WST-1

| Structure (SMILES) | inhibition at 1 µM (KMS-11; 1 μmol/L, 72 hours) [%] | inhibition at 10 µM (IGF-1R; [1]) [%] | inhibition at 1 µM (NCI-H929; 1 μmol/L, 72 hours) [%] | inhibition at 10 µM (KMS-11; 10 μmol/L, 72 hours) [%] | inhibition at 10 µM (NCI-H929; 10 μmol/L, 72 hours) [%] | further results |
| --- | --- | --- | --- | --- | --- | --- |
| Cc1ccsc1C(=O)Nc1cc(C(=O)NCCN(C)C)ccc1/C=C/c1n[nH]c2ccccc12 [Compound 229, (E)-N-{5-[2-(dimethylamino)ethylcarbamoyl]-2-[2-(1H-indazol-3-yl)vinyl]phenyl}-3-methylthiophene-2-carboxamide hydrochloride] | 66.8 | 99.3 | 121 | – | – | – |
| COc1c(OCCCN2CCC(CO)CC2)ccc(/C=C/c2n[nH]c3ccccc23)c1NC(=O)c1sccc1C [Compound 350, (E)-N-(3-{3-[4-(hydroxymethyl)piperidin-1-yl]propoxy}-6-[2-(1H-indazol-3-yl)vinyl]-2-methoxyphenyl)-3-methylthiophene-2-carboxamide] | 117 | 111 | 117 | – | – | – |
| Nc1cccc2c1CN(c1ccccc1/C=C/c1n[nH]c3ccccc13)C2=O [Compound 216, (E)-4-amino-2-{2-[2-(1H-indazol-3-yl)vinyl]phenyl}-2,3-dihydroisoindole-1-one] | – | 96.5 | – | 90.9 | 109 | – |
| Cc1ccsc1C(=O)Nc1cc(C(=O)NC2CC2)ccc1/C=C/c1n[nH]c2ccccc12 [Compound 118, (E)-N-{5-(N-cyclopropylcarbamoyl)-2-[2-(1H-indazol-3-yl)vinyl]phenyl}-3-methylthiophene-2-carboxamide] | – | – | – | 114 | 116 | inhibition at 10 µM (IGF-1R): 102% |
| COCC(=O)N1CCN(Cc2ccc(/C=C/c3n[nH]c4ccccc34)c(NC(=O)c3sccc3C)c2)CC1 [Compound 244, (E)-N-{2-[2-(1H-indazol-3-yl)vinyl]-5-[4-(2-methoxyacetyl)piperazin-1-ylmethyl]phenyl}-3-methylthiophene-2-carboxamide] | 124 | 102 | 127 | – | – | – |
| Cc1ncsc1C(=O)Nc1ccccc1/C=C/c1n[nH]c2ccccc12 [Compound 174, (E)-N-{2-[2-(1H-indazol-3-yl)vinyl]phenyl}-4-methylthiazole-5-carboxamide] | – | 103 | – | 82.6 | 109 | – |
| COc1c(OCCN2CCCC2=O)ccc(/C=C/c2n[nH]c3ccccc23)c1NC(=O)c1sccc1C [Compound 337, (E)-N-{6-[2-(1H-indazol-3-yl)vinyl]-2-methoxy-3-[2-(2-oxopyrrolidin-1-yl)ethoxy]phenyl}-3-methylthiophene-2-carboxamide] | – | 97.4 | – | – | – | inhibition at 1 µM (KMS-11; [2]): 121%; inhibition at 1 µM (NCI-H929; [3]): 120% |
| Cc1ccsc1C(=O)Nc1cc(F)ccc1/C=C/c1n[nH]c2ccccc12 [Compound 265, (E)-N-{5-fluoro-2-[2-(1H-indazol-3-yl)vinyl]phenyl}-3-methylthiophene-2-carboxamide] | 96.9 | 98.4 | 115 | – | – | – |
| Cc1c(Br)csc1C(=O)Nc1ccccc1/C=C/c1n[nH]c2ccccc12 [Compound 353, (E)-N-{2-[2-(1H-indazol-3-yl)vinyl]phenyl}-4-bromo-3-methylthiophene-2-carboxamide] | 77.4 | 102 | 104 | – | – | – |
| COCCOc1ccc(C(=O)Nc2ccccc2/C=C/c2n[nH]c3ccccc23)cc1 [Compound 78, (E)-N-{2-[2-(1H-indazol-3-yl)vinyl]phenyl}-4-(2-methoxyethoxy)benzamide] | – | 100 | – | 107 | 114 | – |
| COc1c(OCCN2CCC(O)CC2)ccc(/C=C/c2n[nH]c3ccccc23)c1NC(=O)c1sccc1C [Compound 349, (E)-{3-[2-(4-hydroxypiperidin-1-yl)ethoxy]-6-[2-(1H-indazol-3-yl)vinyl]-2-methoxyphenyl}-3-methylthiophene-2-carboxamide] | – | – | – | – | – | cytostatic rate (%) KMS-11 (1 μmol/L) (KMS-11; 1 μmol/L, 72 hours): 117.2%; inhibitory activity (%) at 10 μmol/L (IGF-1R; [1]): 101.9%; cytostatic rate (%) H929 (1 μmol/L) (NCI-H929; 1 μmol/L, 72 hours): 116.3% |
| O=C(Nc1ccccc1/C=C/c1n[nH]c2ccccc12)c1ccco1 [Compound 11, (E)-N-{2-[2-(1H-indazol-3-yl)vinyl]phenyl}furan-2-carboxamide] | – | 99.4 | – | 120 | 116 | – |
| COc1c(OCCN2CCOCC2)ccc(/C=C/c2n[nH]c3ccccc23)c1NC(=O)c1sccc1C [Compound 266, (E)-N-{6-[2-(1H-indazol-3-yl)vinyl]-2-methoxy-3-(2-morpholinoethoxy)phenyl}-3-methylthiophene-2-carboxamide] | 131 | 103 | 118 | – | – | – |
| COc1c(OCC(=O)N2CCN(C)CC2)ccc(/C=C/c2n[nH]c3ccccc23)c1NC(=O)c1sccc1C [Compound 333, (E)-N-{6-[2-(1H-indazol-3-yl)vinyl]-2-methoxy-3-[2-(4-methylpiperazin-1-yl)-2-oxoethoxy]phenyl}-3-methylthiophene-2-carboxamide] | – | 109 | – | – | – | inhibition at 1 µM (KMS-11; [2]): 119%; inhibition at 1 µM (NCI-H929; [3]): 118% |
| CC(C)C(=O)Nc1ccccc1/C=C/c1n[nH]c2ccccc12 [Compound 18, (E)-N-{2-[2-(1H-indazol-3-yl)vinyl]phenyl}isobutylamide] | – | – | – | – | – | cytostatic rate (%) KMS-11 (10 μmol/L) (KMS-11; 10 μmol/L, 72 hours): 124.1%; inhibitory activity (%) at 10 μmol/L (IGF-1R; [1]): 96.4%; cytostatic rate (%) H929 (10 μmol/L) (NCI-H929; 10 μmol/L, 72 hours): 112.7% |
| CC(=O)Nc1ccccc1/C=C/c1n[nH]c2ccccc12 [Compound 9, (E)-N-{2-[2-(1H-indazol-3-yl)vinyl]phenyl}acetamide] | – | 74.3 | – | 99.8 | 59 | – |
| CC(=O)CCN1CCN(Cc2ccc(/C=C/c3n[nH]c4ccccc34)c(NC(=O)c3sccc3C)c2)CC1 [Compound 313, (E)-{2-[2-(1H-indazol-3-yl)vinyl]-5-[4-(3-oxobutyl)piperazin-1-ylmethyl]phenyl}-3-methylthiophene-2-carboxamide] | – | – | – | – | – | cytostatic rate (%) KMS-11 (1 μmol/L) (KMS-11; [2]): 107.9%; inhibitory activity (%) at 10 μmol/L (IGF-1R; [1]): 100.7%; cytostatic rate (%) H929 (1 μmol/L) (NCI-H929; [3]): 115.2% |
| Nc1ccc(C(=O)Nc2ccccc2/C=C/c2n[nH]c3ccccc23)cc1 [Compound 70, (E)-4-amino-N-{2-[2-(1H-indazol-3-yl)vinyl]phenyl}benzamide] | – | 101 | – | 113 | 115 | – |
| O=C(Cc1cccs1)Nc1ccccc1/C=C/c1n[nH]c2ccccc12 [Compound 25, (E)-N-{2-[2-(1H-indazol-3-yl)vinyl]phenyl}-2-(thiophen-2-yl)acetamide] | – | 86 | – | 106 | 116 | – |
| Cc1cc([N+](=O)[O-])sc1C(=O)Nc1ccccc1/C=C/c1n[nH]c2ccccc12 [Compound 66, (E)-N-{2-[2-(1H-indazol-3-yl)vinyl]phenyl}-3-methyl-5-nitrothiophene-2-carboxamide] | – | 93.6 | – | 114 | 111 | – |
| COc1c(OCCCN2CC[C@@H](N)C2)ccc(/C=C/c2n[nH]c3ccccc23)c1NC(=O)c1sccc1C [Compound 346, (R)-(E)-N-{3-[3-(3-aminopyrrolidin-1-yl)propoxy]-6-[2-(1H-indazol-3-yl)vinyl]-2-methoxyphenyl}-3-methylthiophene-2-carboxamide] | 97.2 | 114 | 114 | – | – | – |
| O=C(CCc1cccs1)Nc1ccccc1/C=C/c1n[nH]c2ccccc12 [Compound 39, (E)-N-{2-[2-(1H-indazol-3-yl)vinyl]phenyl}-3-(thiophen-2-yl)propionamide] | – | 59.1 | – | 91 | 68.8 | – |
| CC(=O)N1CCN(C(=O)c2ccc(/C=C/c3n[nH]c4ccccc34)c(NC(=O)c3cc4ccccc4s3)c2)CC1 [Compound 90, (E)-N-{5-(4-acetylpiperazin-1-ylcarbonyl)-2-[2-(1H-indazol-3-yl)vinyl]phenyl}benzo[b]thiophene-2-carboxamide] | – | – | – | 136 | 114 | inhibition at 10 µM (IGF-1R): 97% |
| Cc1ccsc1C(=O)Nc1cc(CN2CCN(S(C)(=O)=O)CC2)ccc1/C=C/c1n[nH]c2ccccc12 [Compound 232, (E)-N-{2-[2-(1H-indazol-3-yl)vinyl]-5-(4-methanesulfonylpiperazin-1-ylmethyl)phenyl}-3-methylthiophene-2-carboxamide] | 116 | 101 | 124 | – | – | – |
| Nc1cccc2c1C(=O)N(c1cc(CN3CCN(CCCO)CC3)ccc1/C=C/c1n[nH]c3ccccc13)C2=O [Compound 306, (E)-4-amino-2-{5-[4-(3-hydroxypropyl)piperazin-1-ylmethyl]-2-[2-(1H-indazol-3-yl)vinyl]phenyl}isoindole-1,3-dione] | – | 100 | – | – | – | inhibition at 1 µM (KMS-11; [2]): 112%; inhibition at 1 µM (NCI-H929; [3]): 116% |
